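Values below derive from 48-hour exposures of cells grown in 96-well plates, with endpoints linearly interpolated between the two concentrations bracketing the appropriate inhibition level. At the GI50, growth is halved.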 Active and inactive are the calls of the source. No stated cut-off is given here; in the data, active = GI50 up to about 1.1 µM and inactive = higher.
Columns and labels:
Experiment in all cases: inhibition of tumour cell growth, NCI panel, 48 h
DU-145 = test system: DU-145
HOP-62 = test system: HOP-62
Hs-578T = test system: Hs-578T
K562 = test system: K562
LOX IMVI = test system: LOX IMVI
MDA-N = test system: MDA-N
Malme-3M = test system: Malme-3M
NCI-H460 = test system: NCI-H460
OVCAR-4 = test system: OVCAR-4
OVCAR-5 = test system: OVCAR-5
SF-539 = test system: SF-539
SK-OV-3 = test system: SK-OV-3
SR = test system: SR
TK-10 = test system: TK-10
U-251 = test system: U-251
UACC-62 = test system: UACC-62
CCRF-CEM = test system: CCRF-CEM
NCI-H522 = test system: NCI-H522
RPMI-8226 = test system: RPMI-8226
SK-MEL-5 = test system: SK-MEL-5

SMILES	GI50 (DU-145)	GI50 (HOP-62)	GI50 (Hs-578T)	GI50 (K562)	GI50 (LOX IMVI)	GI50 (MDA-N)	GI50 (Malme-3M)	GI50 (NCI-H460)	GI50 (OVCAR-4)	GI50 (OVCAR-5)	GI50 (SF-539)	GI50 (SK-OV-3)	GI50 (SR)	GI50 (TK-10)	GI50 (U-251)	GI50 (UACC-62)	GI50 (CCRF-CEM)	GI50 (NCI-H522)	GI50 (RPMI-8226)	GI50 (SK-MEL-5)
c1ccc2c(-c3csc(-c4c[nH]c5ccccc45)n3)c[nH]c2c1	> 76.7 µM (inactive)	56.4 µM (inactive)	61.1 µM (inactive)	3.37 µM (inactive)	21.8 µM (inactive)	49 µM (inactive)	> 100 µM (inactive)	> 53.7 µM (inactive)	> 100 µM (inactive)	> 51.9 µM (inactive)	> 100 µM (inactive)	> 44.8 µM (inactive)	2.93 µM (inactive)	63.8 µM (inactive)	> 90.6 µM (inactive)	> 100 µM (inactive)	–	–	–	–
O=[N+]([O-])c1ccc(/C=N/n2c(CO)nc3ccccc32)o1	3.27 µM (inactive)	11.9 µM (inactive)	12.7 µM (inactive)	4.67 µM (inactive)	2.92 µM (inactive)	3.33 µM (inactive)	2.16 µM (inactive)	3.29 µM (inactive)	7.1 µM (inactive)	11.9 µM (inactive)	17.9 µM (inactive)	18.2 µM (inactive)	–	6.55 µM (inactive)	13.9 µM (inactive)	7.52 µM (inactive)	3.78 µM (inactive)	2.28 µM (inactive)	3.43 µM (inactive)	2.14 µM (inactive)
CC(C)CCC[C@@H](C)[C@H]1CC[C@H]2[C@@H]3CC=C4C[C@@H](OC(=O)c5cccc6c(=O)c7ccccc7[nH]c56)CC[C@]4(C)[C@H]3CC[C@]12C	–	34.9 µM (inactive)	> 75 µM (inactive)	43.7 µM (inactive)	> 75 µM (inactive)	1.56 µM (inactive)	> 75 µM (inactive)	–	3.5 µM (inactive)	> 75 µM (inactive)	> 75 µM (inactive)	> 75 µM (inactive)	> 75 µM (inactive)	> 75 µM (inactive)	> 75 µM (inactive)	> 75 µM (inactive)	–	> 75 µM (inactive)	> 75 µM (inactive)	> 75 µM (inactive)
CCOC(=O)/C(C(=O)Nc1ccc(F)cc1)=C(/N)N1CCOCC1	> 100 µM (inactive)	> 100 µM (inactive)	> 100 µM (inactive)	> 100 µM (inactive)	> 100 µM (inactive)	> 100 µM (inactive)	> 100 µM (inactive)	> 100 µM (inactive)	> 100 µM (inactive)	> 100 µM (inactive)	–	> 100 µM (inactive)	–	> 100 µM (inactive)	> 100 µM (inactive)	> 100 µM (inactive)	> 100 µM (inactive)	> 100 µM (inactive)	> 100 µM (inactive)	–
O=NC1c2cccc3cccc(c23)C1N=O (stereo not given)	11.1 µM (inactive)	5.26 µM (inactive)	15.9 µM (inactive)	2.65 µM (inactive)	1.59 µM (inactive)	3.84 µM (inactive)	–	4.36 µM (inactive)	1.59 µM (inactive)	2.83 µM (inactive)	12.8 µM (inactive)	11 µM (inactive)	–	10.2 µM (inactive)	3.1 µM (inactive)	–	1.19 µM (inactive)	1.93 µM (inactive)	8.17 µM (inactive)	14 µM (inactive)
N[C@H](CCC(=O)NCP(=O)(O)O)C(=O)O	–	> 100 µM (inactive)	> 100 µM (inactive)	> 100 µM (inactive)	–	> 100 µM (inactive)	> 100 µM (inactive)	> 100 µM (inactive)	–	> 100 µM (inactive)	> 100 µM (inactive)	–	> 100 µM (inactive)	10.5 µM (inactive)	> 100 µM (inactive)	> 100 µM (inactive)	–	> 100 µM (inactive)	> 100 µM (inactive)	> 100 µM (inactive)
Clc1ncnc2c1nc(C#Cc1ccccc1)n2Cc1ccccc1	7.52 µM (inactive)	24.7 µM (inactive)	53 µM (inactive)	3.67 µM (inactive)	11.2 µM (inactive)	5.61 µM (inactive)	> 100 µM (inactive)	82.2 µM (inactive)	16.7 µM (inactive)	> 100 µM (inactive)	29.9 µM (inactive)	> 100 µM (inactive)	3.08 µM (inactive)	> 100 µM (inactive)	17.6 µM (inactive)	30.5 µM (inactive)	3.78 µM (inactive)	16.4 µM (inactive)	–	32 µM (inactive)
OC(C/C=N/Nc1ccccc1)(C(F)(F)Cl)C(F)(F)Cl	> 10 µM (inactive)	> 10 µM (inactive)	4.66 µM (inactive)	9.46 µM (inactive)	> 10 µM (inactive)	> 10 µM (inactive)	> 10 µM (inactive)	5.53 µM (inactive)	> 10 µM (inactive)	–	> 10 µM (inactive)	> 10 µM (inactive)	–	> 10 µM (inactive)	> 10 µM (inactive)	> 10 µM (inactive)	> 10 µM (inactive)	4.05 µM (inactive)	–	> 10 µM (inactive)
NC1=CN(CCCO)C2=N/C(=C\c3ccccc3)C(=O)N12	> 100 µM (inactive)	> 100 µM (inactive)	86.3 µM (inactive)	> 100 µM (inactive)	> 100 µM (inactive)	> 100 µM (inactive)	> 100 µM (inactive)	> 100 µM (inactive)	> 100 µM (inactive)	> 100 µM (inactive)	> 100 µM (inactive)	> 100 µM (inactive)	–	> 100 µM (inactive)	> 100 µM (inactive)	> 100 µM (inactive)	> 100 µM (inactive)	80.4 µM (inactive)	83.4 µM (inactive)	> 100 µM (inactive)
CC(=O)Oc1ccc2cc(Oc3cc(Cl)c(Cl)cc3Cl)c(=O)oc2c1	25.3 µM (inactive)	17.3 µM (inactive)	22.2 µM (inactive)	13.2 µM (inactive)	15.4 µM (inactive)	14.6 µM (inactive)	15.3 µM (inactive)	18.8 µM (inactive)	34.5 µM (inactive)	18.5 µM (inactive)	16 µM (inactive)	–	19.8 µM (inactive)	24.8 µM (inactive)	15.6 µM (inactive)	–	14 µM (inactive)	16.7 µM (inactive)	–	11.9 µM (inactive)
CN(C)CCNC(=O)c1cccc(C(=O)Nc2ccccc2)c1[N+](=O)[O-]	> 100 µM (inactive)	> 100 µM (inactive)	> 100 µM (inactive)	> 100 µM (inactive)	–	> 100 µM (inactive)	48.5 µM (inactive)	> 100 µM (inactive)	–	> 100 µM (inactive)	> 100 µM (inactive)	> 100 µM (inactive)	> 100 µM (inactive)	> 100 µM (inactive)	> 100 µM (inactive)	> 100 µM (inactive)	> 100 µM (inactive)	> 100 µM (inactive)	–	> 100 µM (inactive)
FC(F)(F)c1ccc2nc(Sc3ccc4ccccc4c3)cnc2c1	> 100 µM (inactive)	74.8 µM (inactive)	> 100 µM (inactive)	45.8 µM (inactive)	44.1 µM (inactive)	38.5 µM (inactive)	> 100 µM (inactive)	73.1 µM (inactive)	51.5 µM (inactive)	> 100 µM (inactive)	36.3 µM (inactive)	> 100 µM (inactive)	–	> 100 µM (inactive)	25.2 µM (inactive)	64.9 µM (inactive)	24.4 µM (inactive)	37.5 µM (inactive)	–	28.1 µM (inactive)
C/C(=N\NC(=S)N1CCCCCCCCCCCC1)c1ccccn1	0.533 µM (active)	0.132 µM (active)	0.24 µM (active)	0.0223 µM (active)	0.135 µM (active)	0.126 µM (active)	0.281 µM (active)	0.256 µM (active)	0.0491 µM (active)	0.971 µM (active)	0.199 µM (active)	–	0.0782 µM (active)	0.166 µM (active)	0.0673 µM (active)	–	0.0431 µM (active)	0.0855 µM (active)	–	0.2 µM (active)
CCc1cn(C2CC(CO)C(CO)S2)c(=O)[nH]c1=O (stereo not given)	> 100 µM (inactive)	> 100 µM (inactive)	> 100 µM (inactive)	> 100 µM (inactive)	> 100 µM (inactive)	> 100 µM (inactive)	> 100 µM (inactive)	–	> 100 µM (inactive)	> 100 µM (inactive)	> 100 µM (inactive)	> 100 µM (inactive)	–	> 100 µM (inactive)	> 100 µM (inactive)	> 100 µM (inactive)	> 100 µM (inactive)	> 100 µM (inactive)	> 100 µM (inactive)	> 100 µM (inactive)
C[C@@H](CC(=O)O)OC1OC(COC(=O)C(C)(C)C)C(OC(=O)C(C)(C)C)C(OC(=O)C(C)(C)C)C1OC(=O)C(C)(C)C (stereo not given in full)	59.6 µM (inactive)	> 100 µM (inactive)	58.7 µM (inactive)	34.4 µM (inactive)	97.3 µM (inactive)	69.7 µM (inactive)	–	29 µM (inactive)	–	> 100 µM (inactive)	52.8 µM (inactive)	73.6 µM (inactive)	–	99.3 µM (inactive)	40 µM (inactive)	71.9 µM (inactive)	26.5 µM (inactive)	57 µM (inactive)	26.4 µM (inactive)	29.6 µM (inactive)
